From patent US10183062B2, “Treatment for cancer” (The University of Nottingham, priority 2013, dated 2019)

What was measured:
[1] = system: Vibrio fischeri FRase I variant F124W; conditions: Swe et al., 2012, cited from earlier work
[2] = system: HinNTR, NTR from Haemophilus influenzae; conditions: Theys et al., 2006, cited from earlier work
[3] = system: BliNTR, NTR from Bacillus licheniformis; conditions: Emptage et al., 2009, cited from earlier work
[4] = system: E. coli NfnB variant N71S/F124K; conditions: Searle et al., 2004 and Race et al., 2007, cited from earlier work
HCT116 tumours = test: Mouse xenograft tumour growth delay (CDEPT); type: in vivo, NMRI nu/nu mice; conditions: prodrug alone, 15 mg/kg i.p., 5 consecutive days
Description: Human colorectal HCT116 carcinoma cells were grown in DMEM medium supplemented with 10% FBS, trypsinized and injected subcutaneously in 100 μl PBS/ . . . % matrigel at a concentration of 5.10^6 cells in the abdominal flank of adult NMRI nu/nu mice. As soon as tumours were palpable, tumour volumes were determined three times per week by measuring three orthogonal diameters using calipers. Volumes were calculated according to the formula V=A×B×C×/6. All experiments were conducted in accordance with local institutional guidelines of the University of Leuven, approved by the animal ethics committee and procedures were according to the guidelines defined by the UKCCCR (12). […] Tumour growth delay was determined for each individual tumour within the different groups as the time necessary to reach three times their initial volume at the start of the treatment. […]
Since strains E1 and N1 express stably-integrated NTR under the regulatory control of a strong promoter without inclusion of any antibiotic resistance gene, it was next determined whether administration of these clinically-applicable strains in combination with prodrug administration to tumour-bearing animals would result in anti-tumour efficacy. It was first evaluated whether inactivation of pyrE affected the tumour-colonizing capacity of systemically administered spores. […]

[5] = system: E. coli NfnB nitroreductase, wild type; conditions: Knox et al., 1992, cited from earlier work

NC(=O)c1cc(N2CC2)c([N+](=O)[O-])cc1[N+](=O)[O-] [CB1954, 5-(aziridin-1-yl)-2,4-dinitrobenzamide]
Kcat ([1]; CB1954): 26.6 S^−1
Km ([1]; read-out: Km^CB1954): 259 µM
Kcat ([2]; CB1954): 56.2 S^−1
Km ([2]; read-out: Km^CB1954): 690 µM
Kcat ([3]; CB1954): 6.4 S^−1
Km ([3]; read-out: Km^CB1954): 30 µM
Kcat ([4]; CB1954): 7.5 S^−1
Km ([4]; read-out: Km^CB1954): 170 µM
tumour growth delay (HCT116 tumours): did not result in any effect
Kcat ([5]; CB1954): 6 S^−1
Km ([5]; read-out: Km^CB1954): 862 µM
